Consider 2 compounds from publication PMC12731165, “Dual Modulation of Cardiac Ion Pumps: A Small-Molecule SERCA2a SUMOylation Enhancer Also Inhibits the Na^+/K^+-ATPase” (Biomedicines, 2025).

As a reminder, the IC50 is the concentration that gives 50% inhibition. Read a high IC50 as lower potency.

The target of test [1] is T1, Na^+/K^+-ATPase (NKA), α1 isoform (Sus scrofa, UniProt P05024).
T1 construct: gene ATP1A1; native enzyme purified from porcine kidney outer medulla (α/β heterodimer); with NKA β-subunit (α/β heterodimer)
Kind of test: ouabain-sensitive ATPase activity, NADH-coupled assay at […] nm, […] °C. In kind it is biochemical.

In test [2] the target is T1, Na^+/K^+-ATPase (NKA), α1 isoform. Kind of test: ouabain-sensitive ATP hydrolysis ([…] ouabain), NADH-coupled assay. In kind it is biochemical.

In test [1], `COc1ccc(-c2nnc(Nc3nc4c(OC)cccc4s3)o2)cc1` [N106, N-(4-methoxy-1,3-benzothiazol-2-yl)-5-(4-methoxyphenyl)-1,3,4-oxadiazol-2-amine] showed an IC50 of 7 ± 1 µM.
Turning to `C[C@@H]1O[C@@H](O[C@H]2C[C@@H](O)[C@]3(CO)[C@H]4[C@H](O)C[C@]5(C)[C@@H](C6=CC(=O)OC6)CC[C@]5(O)[C@@H]4CC[C@]3(O)C2)[C@H](O)[C@H](O)[C@H]1O` [ouabain], in test [2], the “ouabain-sensitive ATP hydrolysis (500 μM ouabain), NADH-coupled assay” value was “The enzymatic activity was verified through ouabain (OUA)-sensitive ATP hydrolysis assays prior to use in experiments”.
